From US6737383B1, “Herbicidal oxadiazolidines” (priority 1999, dated 2004)

Key:
[1] = system: bedstraw; experiment: Test B pre/postemergence bedstraw; assay type: in vivo, Galium aparine
How it was run: (§1)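 Test chemicals in a non-phytotoxic solvent mixture with surfactant were sprayed preemergence onto planted seeds and postemergence onto plants 2 to 18 cm tall (1- to 4-leaf stage). After twelve to sixteen days in a greenhouse, injury was visually rated against untreated controls from 0 (no effect) to 10 (complete control).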

[2] = system: blackgrass; experiment: Test B pre/postemergence blackgrass; assay type: in vivo, Alopecurus myosuroides
How it was run: as §1

[3] = system: surinam grass; experiment: Test B pre/postemergence surinam grass; assay type: in vivo, Brachiaria decumbens
How it was run: as §1

[4] = system: cocklebur; experiment: Test B pre/postemergence cocklebur; assay type: in vivo, Xanthium strumarium
How it was run: as §1

[5] = system: corn; experiment: Test B pre/postemergence corn; assay type: in vivo, Zea mays
How it was run: as §1

[6] = system: crabgrass; experiment: Test B pre/postemergence crabgrass; assay type: in vivo, Digitaria sanguinalis
How it was run: as §1

[7] = system: giant foxtail; experiment: Test B pre/postemergence giant foxtail; assay type: in vivo, Setaria faberii
How it was run: as §1

[8] = system: morningglory; experiment: Test B pre/postemergence morningglory; assay type: in vivo, Ipomoea hederacea
How it was run: as §1

[9] = system: pigweed; experiment: Test B pre/postemergence pigweed; assay type: in vivo, Amaranthus retroflexus
How it was run: as §1

[10] = system: rape; experiment: Test B pre/postemergence rape; assay type: in vivo, Brassica napus
How it was run: as §1

[11] = system: soybean; experiment: Test B pre/postemergence soybean; assay type: in vivo, Glycine max
How it was run: as §1

[12] = system: sugar beet; experiment: Test B pre/postemergence sugar beet; assay type: in vivo, Beta vulgaris
How it was run: as §1

[13] = system: velvetleaf; experiment: Test B pre/postemergence velvetleaf; assay type: in vivo, Abutilon theophrasti
How it was run: as §1

[14] = system: wheat; experiment: Test B pre/postemergence wheat; assay type: in vivo, Triticum aestivum
How it was run: as §1

[15] = system: wild oat; experiment: Test B pre/postemergence wild oat; assay type: in vivo, Avena fatua
How it was run: as §1

[16] = system: purple nutsedge; experiment: Test B pre/postemergence purple nutsedge; assay type: in vivo, Cyperus rotundus
How it was run: as §1

[17] = Postemergence, Rate 62 g/ha, scale of 0 to 10, 0 is no effect, 10 is complete control
[18] = Postemergence, Rate 125 g/ha, scale 0 to 10, 0 is no effect, 10 is complete control
[19] = Postemergence, Rate 500 g/ha, scale 0 to 10, 0 is no effect, 10 is complete control
[20] = Preemergence, Rate 62 g/ha, scale 0 to 10 (0 no effect, 10 complete control)
[21] = Preemergence, Rate 125 g/ha, scale 0 to 10, 0 is no effect, 10 is complete control
[22] = Preemergence, Rate 500 g/ha, scale of 0 to 10 where 0 is no effect and 10 is complete control
[23] = Rate 250 g/ha, Postemergence, scale of 0 to 10 where 0 is no effect and 10 is complete control

## CCOC(=O)C=C(Cn1c(=O)on(C(=O)N(c2ccc(Cl)cc2)C(C)C)c1=O)OCC [Compound 549]
[1]; [17]
  Bedstraw plant response rating: 0
[1]; [18]
  Bedstraw plant response rating: 0
[1]; [19]
  Plant response rating, Bedstraw: 8
[1]; [20]
  Bedstraw plant response rating: 0
[1]; [21]
  Bedstraw plant response rating: 0
[1]; Preemergence, Rate 250 g/ha
  Bedstraw plant response rating (0 to 10 scale): 5
[1]; [22]
  Bedstraw plant response rating: 5
[1]; [23]
  Plant response rating, Bedstraw: 0
[2]; [17]
  Blackgrass plant response rating: 0
[2]; [18]
  Blackgrass plant response rating: 0
[2]; [19]
  Plant response rating, Blackgrass: 3
[2]; [20]
  Blackgrass plant response rating: 0
[2]; [21]
  Blackgrass plant response rating: 4
[2]; Preemergence, Rate 250 g/ha
  Blackgrass plant response rating (0 to 10 scale): 6
[2]; [23]
  Plant response rating, Blackgrass: 2
[3]; [17]
  B. signalgrass plant response rating: 0
[3]; [18]
  B. signalgrass plant response rating: 0
[3]; [19]
  Plant response rating, B. signalgrass: 3
[3]; [20]
  B. signalgrass plant response rating: 0
[3]; [21]
  B. signalgrass plant response rating: 0
[3]; Preemergence, Rate 250 g/ha
  B. signalgrass plant response rating (0 to 10 scale, 0 is no effect, 10 is complete control): 0
[3]; [22]
  B. signalgrass plant response rating: 0
[3]; [23]
  Plant response rating, B. signalgrass: 0
[4]; [17]
  Cocklebur plant response rating: 0
[4]; [18]
  Cocklebur plant response rating: 0
[4]; [19]
  Plant response rating, Cocklebur: 4
[4]; [20]
  Cocklebur plant response rating: 0
[4]; [21]
  Cocklebur plant response rating: 0
[4]; Preemergence, Rate 250 g/ha
  Cocklebur plant response rating (0 to 10 scale): 0
[4]; [22]
  Cocklebur plant response rating: 0
[4]; [23]
  Plant response rating, Cocklebur: 0
[5]; [17]
  Corn plant response rating: 0
[5]; [18]
  Corn plant response rating: 0
[5]; [19]
  Plant response rating, Corn: 0
[5]; [20]
  Corn plant response rating: 0
[5]; [21]
  Corn plant response rating: 0
[5]; Preemergence, Rate 250 g/ha
  Corn plant response rating (0 to 10 scale): 0
[5]; [22]
  Corn plant response rating: 0
[5]; [23]
  Plant response rating, Corn: 0
[6]; [17]
  Crabgrass plant response rating: 2
[6]; [18]
  Crabgrass plant response rating: 3
[6]; [19]
  Plant response rating, Crabgrass: 9
[6]; [20]
  Crabgrass plant response rating: 3
[6]; [21]
  Crabgrass plant response rating: 7
[6]; Preemergence, Rate 250 g/ha
  Crabgrass plant response rating (0 to 10 scale): 10
[6]; [22]
  Crabgrass plant response rating: 10
[6]; [23]
  Plant response rating, Crabgrass: 6
[7]; [17]
  Giant foxtail plant response rating: 2
[7]; [18]
  Giant foxtail plant response rating: 2
[7]; [19]
  Plant response rating, Giant foxtail: 7
[7]; [20]
  Giant foxtail plant response rating: 9
[7]; [21]
  Giant foxtail plant response rating: 10
[7]; Preemergence, Rate 250 g/ha
  Giant foxtail plant response rating (0 to 10 scale): 10
[7]; [22]
  Giant foxtail plant response rating: 10
[7]; [23]
  Plant response rating, Giant foxtail: 2
[8]; [17]
  Morningglory plant response rating: 4
[8]; [18]
  Morningglory plant response rating: 4
[8]; [19]
  Plant response rating, Morningglory: 4
[8]; [20]
  Morningglory plant response rating: 0
[8]; [21]
  Morningglory plant response rating: 0
[8]; Preemergence, Rate 250 g/ha
  Morningglory plant response rating (0 to 10 scale): 0
[8]; [22]
  Morningglory plant response rating: 0
[8]; [23]
  Plant response rating, Morningglory: 4
[9]; [17]
  Redroot pigweed plant response rating: 0
[9]; [18]
  Redroot pigweed plant response rating: 0
[9]; [19]
  Plant response rating, Redroot pigweed: 8
[9]; [20]
  Redroot pigweed plant response rating: 6
[9]; [21]
  Redroot pigweed plant response rating: 6
[9]; [23]
  Plant response rating, Redroot pigweed: 0
[10]; [17]
  Rape plant response rating: 0
[10]; [18]
  Rape plant response rating: 0
[10]; [19]
  Plant response rating, Rape: 7
[10]; [20]
  Rape plant response rating: 0
[10]; [21]
  Rape plant response rating: 0
[10]; Preemergence, Rate 250 g/ha
  Rape plant response rating (0 to 10 scale): 0
[10]; [22]
  Rape plant response rating: 0
[10]; [23]
  Plant response rating, Rape: 5
[11]; [17]
  Soybean plant response rating: 2
[11]; [18]
  Soybean plant response rating: 2
[11]; [19]
  Plant response rating, Soybean: 3
[11]; [20]
  Soybean plant response rating: 0
[11]; [21]
  Soybean plant response rating: 0
[11]; Preemergence, Rate 250 g/ha
  Soybean plant response rating (0 to 10 scale): 0
[11]; [22]
  Soybean plant response rating: 0
[11]; [23]
  Plant response rating, Soybean: 2
[12]; [17]
  Sugarbeets plant response rating: 0
[12]; [18]
  Sugarbeets plant response rating: 0
[12]; [19]
  Plant response rating, Sugarbeets: 4
[12]; [20]
  Sugarbeets plant response rating: 0
[12]; [21]
  Sugarbeets plant response rating: 0
[12]; Preemergence, Rate 250 g/ha
  Sugarbeets plant response rating (0 to 10 scale): 0
[12]; [22]
  Sugarbeets plant response rating: 3
[12]; [23]
  Plant response rating, Sugarbeets: 0
[13]; [18]
  Velvetleaf plant response rating: 0
[13]; [19]
  Plant response rating, Velvetleaf: 4
[13]; [20]
  Velvetleaf plant response rating: 0
[13]; [21]
  Velvetleaf plant response rating: 0
[13]; Preemergence, Rate 250 g/ha
  Velvetleaf plant response rating (0 to 10 scale): 0
[13]; [22]
  Velvetleaf plant response rating: 0
[13]; [23]
  Plant response rating, Velvetleaf: 4
[14]; [17]
  Wheat plant response rating: 0
[14]; [18]
  Wheat plant response rating: 0
[14]; [19]
  Plant response rating, Wheat: 2
[14]; [20]
  Wheat plant response rating: 0
[14]; [21]
  Wheat plant response rating: 0
[14]; [22]
  Wheat plant response rating: 0
[14]; [23]
  Plant response rating, Wheat: 0
[15]; [17]
  Wild oats plant response rating: 0
[15]; [18]
  Wild oats plant response rating: 0
[15]; [19]
  Plant response rating, Wild oats: 2
[15]; [20]
  Wild oats plant response rating: 0
[15]; [21]
  Wild oats plant response rating: 0
[15]; Preemergence, Rate 250 g/ha
  Wild oats plant response rating (0 to 10 scale): 0
[15]; [22]
  Wild oats plant response rating: 3
[15]; [23]
  Plant response rating, Wild oats: 0
[16]; [18]
  Nutsedge plant response rating: 0
[16]; [19]
  Plant response rating, Nutsedge: 0
[16]; [21]
  Nutsedge plant response rating: 0
[16]; Preemergence, Rate 250 g/ha
  Nutsedge plant response rating (0 to 10 scale): 0
[16]; [22]
  Nutsedge plant response rating: 0
